The source of these data is ChEMBL document CHEMBL4373645, “Recent development of leucyl-tRNA synthetase inhibitors as antimicrobial agents” (Medchemcomm, 2019).

For orientation: Kd means the equilibrium constant for the complex coming apart. High values mean lower affinity, low ones higher affinity. Broadly, the IC50 is the midpoint of a concentration-inhibition curve. The term MIC denotes the lowest concentration found to suppress growth.

Values after ≈ are worked out from the molar mass of the structure shown.

Assay [1] addresses Leucine--tRNA ligase (Escherichia coli (strain K12), UniProt P07813). The assay is described as follows: Binding affinity to Escherichia coli LeuRS.
The nature of assay [2]: Inhibition of Trypanosoma brucei LeuRS preincubated for 20 mins followed by ATP addition measured after 15 mins in presence of [14C]leucine by scintillation counting method.
Assay [3] can be described thus: Selectivity index, ratio of IC50 for human cytoplasmic LeuRS to IC50 for Trypanosoma brucei LeuRS.
Assay [4] can be described thus: Inhibition of human LeuRS after 10 mins in presence of [3H]leucine by scintillation counting method.
Assay [5] concerns Mycobacterium tuberculosis. Kind of assay: Antitubercular activity against Mycobacterium tuberculosis H37Rv by time-kill assay. It is filed as functional.
Assay [6] relates to Streptococcus pneumoniae. Kind of assay: Antibacterial activity against Streptococcus pneumoniae assessed as the reduction in bacterial growth incubated for 24 hrs by dilution antimicrobial susceptibility test. In kind it is functional.
A short description of assay [7]: Inhibition of Trypanosoma brucei LeuRS presence of [14C]leucine by scintillation counting method.
For assay [8], the system named is Trypanosoma brucei. The assay is described as follows: Inhibition of Trypanosoma brucei LeuRS assessed as residual activity at 100 uM incubated for 5 mins in presence of [14C]leucine by scintillation counting method relative to control.

Leucine--tRNA ligase, sequence (P07813 whole entry): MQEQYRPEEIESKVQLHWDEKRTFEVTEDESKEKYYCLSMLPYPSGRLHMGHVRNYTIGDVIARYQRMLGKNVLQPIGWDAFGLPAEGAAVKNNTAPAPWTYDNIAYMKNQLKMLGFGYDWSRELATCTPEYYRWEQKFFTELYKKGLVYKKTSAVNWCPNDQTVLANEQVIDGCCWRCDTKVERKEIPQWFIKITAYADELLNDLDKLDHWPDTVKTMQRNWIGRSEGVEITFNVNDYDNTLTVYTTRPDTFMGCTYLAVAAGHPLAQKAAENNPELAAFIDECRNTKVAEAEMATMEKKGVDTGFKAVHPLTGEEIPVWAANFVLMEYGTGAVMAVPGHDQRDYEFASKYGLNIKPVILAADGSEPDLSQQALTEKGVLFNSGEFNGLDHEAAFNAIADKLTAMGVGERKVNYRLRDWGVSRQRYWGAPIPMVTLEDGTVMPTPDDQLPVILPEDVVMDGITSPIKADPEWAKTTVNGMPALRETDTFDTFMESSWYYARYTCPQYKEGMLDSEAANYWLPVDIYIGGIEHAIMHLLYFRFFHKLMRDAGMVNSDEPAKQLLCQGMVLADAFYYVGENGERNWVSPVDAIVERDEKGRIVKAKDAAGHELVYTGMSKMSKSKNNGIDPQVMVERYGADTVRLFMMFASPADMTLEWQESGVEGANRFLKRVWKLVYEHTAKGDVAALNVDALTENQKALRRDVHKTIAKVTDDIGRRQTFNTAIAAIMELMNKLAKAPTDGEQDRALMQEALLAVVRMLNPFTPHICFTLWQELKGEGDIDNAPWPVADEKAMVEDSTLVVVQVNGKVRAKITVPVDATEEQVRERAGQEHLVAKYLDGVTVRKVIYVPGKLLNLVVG

As to `Cc1cc(-c2cccc(S(=O)(=O)CC(=O)[C@@H](N)CC(C)C)c2)ncn1`, the Kd in assay [1] was 0.0014 µM.
Consider `COc1ccc(C(=O)NC(=S)Nc2cccc(S(=O)(=O)NC(=O)[C@@H](N)CC(C)C)c2)cc1`, for which the IC50 in assay [2] was found to be 5.6 µM; in assay [4], 33.9 µM. Also, the Ratio IC50 in assay [3] is 4.5 to 7.3.
Molecule `NCC1OB(O)c2ccccc21` (stereo not drawn) gave an MIC in assay [5] of 1.8 µg/mL (≈ 11 µM).
Still for that read-out and setting: then `OB1OCc2ccccc21` [BENZOXABOROLE], with 7.5 µg/mL (≈ 56 µM).
As for `CC(C)C[C@H](NC(=O)OCc1ccccc1)C(=O)NS(=O)(=O)c1cccc(NC(=S)NC(=O)COc2ccc(Br)cc2Cl)c1`, the IC50 in assay [2] was 16.7 µM.
On the same count and under the same terms, to `NS(=O)(=O)c1ccc(NC(=S)NC(=O)COc2ccc(Br)cc2Cl)cc1` belongs 174 µM; to `O=C(COc1ccc(Br)cc1Cl)NC(=S)Nc1cccc(S(=O)(=O)NC(=O)[C@H](Cc2ccccc2)NC(=O)OCc2ccccc2)c1`, 13.7 µM.
For the molecule `CC(C)C[C@H](N)C(=O)NS(=O)(=O)c1cccc(NC(=S)NC(=O)COc2ccc(Br)cc2Cl)c1`, the values for the IC50 in assay [2] and in assay [4] were 1.1 µM and 4.9 µM, respectively. Besides, the Ratio IC50 in assay [3] is 4.5 to 7.3.
For `COc1cccc(C(=O)NC(=S)Nc2cccc(S(=O)(=O)NC(=O)[C@@H](N)CC(C)C)c2)c1`, in that order: 6.7 µM, 40 µM and 4.5 to 7.3.
On to `OB1OCc2ccc(C(O)c3ccccc3)cc21` (stereo not drawn), for which the MIC in assay [6] was found to be 5 µg/mL (≈ 20.8 µM).
For `Cc1n[nH]c(=O)nc1Nc1cc(Cl)ccc1O`, in assay [7], the IC50 was 7.6 µM. For the same molecule, the Activity in assay [8] came out at 2.3%.
With `O=c1nc(Nc2cc(Cl)ccc2O)cn[nH]1`, the IC50 in assay [7] was 7.2 µM. Also, the Activity in assay [8] is 18%.
With `CC(C)C[C@H](N)C(=O)NS(=O)(=O)c1cccc(NC(=S)NC(=O)c2ccccc2)c1`, the IC50 in assay [2] was 7.6 µM; in assay [4], 55.5 µM. Moreover, the Ratio IC50 in assay [3] lay within 4.5 to 7.3.
